35 molecules from ChEMBL document CHEMBL5390280, “Design, Synthesis, and Biological Evaluation of an Orally Bioavailable, Potent, and Selective ROCK2 Inhibitor for Psoriasis Treatment” (J Med Chem, 2023) can be followed below.

Experiment [1] concerns the target T1, Rho-associated protein kinase 1 (Homo sapiens, UniProt Q13464). The experiment in a line: Inhibition of ROCK1 (unknown origin) by HTRF assay. (In general: TR-FRET usually uses a lanthanide donor and a delayed reading to cut background.)
The target in experiment [2] is T2, Rho-associated protein kinase 2 (Homo sapiens, UniProt O75116). In words: Inhibition of ROCK2 (unknown origin) by HTRF assay.
T2 sequence (O75116 whole entry): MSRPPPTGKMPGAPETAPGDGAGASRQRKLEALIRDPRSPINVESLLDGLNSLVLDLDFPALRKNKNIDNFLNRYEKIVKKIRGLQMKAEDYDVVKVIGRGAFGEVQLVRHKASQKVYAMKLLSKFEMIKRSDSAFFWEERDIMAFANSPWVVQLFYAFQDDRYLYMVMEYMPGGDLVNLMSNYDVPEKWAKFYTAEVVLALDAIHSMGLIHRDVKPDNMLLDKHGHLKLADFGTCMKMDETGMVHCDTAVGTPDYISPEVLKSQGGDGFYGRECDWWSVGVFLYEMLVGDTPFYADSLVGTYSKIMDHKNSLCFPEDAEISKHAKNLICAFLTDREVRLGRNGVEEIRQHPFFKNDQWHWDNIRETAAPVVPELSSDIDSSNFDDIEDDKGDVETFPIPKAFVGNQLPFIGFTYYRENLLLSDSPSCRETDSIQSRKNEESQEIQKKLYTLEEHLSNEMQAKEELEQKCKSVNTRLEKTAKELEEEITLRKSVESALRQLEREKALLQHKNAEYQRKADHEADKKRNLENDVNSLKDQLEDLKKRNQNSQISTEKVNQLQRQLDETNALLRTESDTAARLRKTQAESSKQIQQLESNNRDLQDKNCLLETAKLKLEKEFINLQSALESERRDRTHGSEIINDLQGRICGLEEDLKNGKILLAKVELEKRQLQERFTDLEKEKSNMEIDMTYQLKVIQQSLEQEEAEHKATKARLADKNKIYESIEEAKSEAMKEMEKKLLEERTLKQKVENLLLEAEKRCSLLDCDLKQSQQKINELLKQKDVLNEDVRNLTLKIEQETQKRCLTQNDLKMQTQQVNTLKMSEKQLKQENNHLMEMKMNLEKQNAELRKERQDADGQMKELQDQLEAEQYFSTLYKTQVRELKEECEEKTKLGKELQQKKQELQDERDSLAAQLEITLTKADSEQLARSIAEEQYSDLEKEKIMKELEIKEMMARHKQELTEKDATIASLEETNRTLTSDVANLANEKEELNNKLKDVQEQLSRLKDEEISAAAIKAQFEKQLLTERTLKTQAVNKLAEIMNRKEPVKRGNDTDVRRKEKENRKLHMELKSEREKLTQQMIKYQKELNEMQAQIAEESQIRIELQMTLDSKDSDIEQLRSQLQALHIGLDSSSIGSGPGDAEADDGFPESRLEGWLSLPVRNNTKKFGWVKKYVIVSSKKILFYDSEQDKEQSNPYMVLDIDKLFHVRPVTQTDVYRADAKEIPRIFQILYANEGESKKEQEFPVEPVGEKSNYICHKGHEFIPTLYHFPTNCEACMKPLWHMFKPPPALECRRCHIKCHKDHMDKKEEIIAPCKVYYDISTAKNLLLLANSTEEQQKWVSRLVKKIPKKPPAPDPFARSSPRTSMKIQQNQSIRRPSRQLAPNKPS
Experiment [3] can be described thus: Selectivity ratio of IC50 for ROCK1 (unknown origin) to IC50 for ROCK2 (unknown origin).
Experiment [4] has as its target T2, Rho-associated protein kinase 2. In words: Inhibition of ROCK2 (unknown origin).
Experiment [5] has as its target T1, Rho-associated protein kinase 1. The experiment in a line: Inhibition of ROCK1 (unknown origin).

Each structure is given as a SMILES string.

T1 sequence (Q13464 whole entry): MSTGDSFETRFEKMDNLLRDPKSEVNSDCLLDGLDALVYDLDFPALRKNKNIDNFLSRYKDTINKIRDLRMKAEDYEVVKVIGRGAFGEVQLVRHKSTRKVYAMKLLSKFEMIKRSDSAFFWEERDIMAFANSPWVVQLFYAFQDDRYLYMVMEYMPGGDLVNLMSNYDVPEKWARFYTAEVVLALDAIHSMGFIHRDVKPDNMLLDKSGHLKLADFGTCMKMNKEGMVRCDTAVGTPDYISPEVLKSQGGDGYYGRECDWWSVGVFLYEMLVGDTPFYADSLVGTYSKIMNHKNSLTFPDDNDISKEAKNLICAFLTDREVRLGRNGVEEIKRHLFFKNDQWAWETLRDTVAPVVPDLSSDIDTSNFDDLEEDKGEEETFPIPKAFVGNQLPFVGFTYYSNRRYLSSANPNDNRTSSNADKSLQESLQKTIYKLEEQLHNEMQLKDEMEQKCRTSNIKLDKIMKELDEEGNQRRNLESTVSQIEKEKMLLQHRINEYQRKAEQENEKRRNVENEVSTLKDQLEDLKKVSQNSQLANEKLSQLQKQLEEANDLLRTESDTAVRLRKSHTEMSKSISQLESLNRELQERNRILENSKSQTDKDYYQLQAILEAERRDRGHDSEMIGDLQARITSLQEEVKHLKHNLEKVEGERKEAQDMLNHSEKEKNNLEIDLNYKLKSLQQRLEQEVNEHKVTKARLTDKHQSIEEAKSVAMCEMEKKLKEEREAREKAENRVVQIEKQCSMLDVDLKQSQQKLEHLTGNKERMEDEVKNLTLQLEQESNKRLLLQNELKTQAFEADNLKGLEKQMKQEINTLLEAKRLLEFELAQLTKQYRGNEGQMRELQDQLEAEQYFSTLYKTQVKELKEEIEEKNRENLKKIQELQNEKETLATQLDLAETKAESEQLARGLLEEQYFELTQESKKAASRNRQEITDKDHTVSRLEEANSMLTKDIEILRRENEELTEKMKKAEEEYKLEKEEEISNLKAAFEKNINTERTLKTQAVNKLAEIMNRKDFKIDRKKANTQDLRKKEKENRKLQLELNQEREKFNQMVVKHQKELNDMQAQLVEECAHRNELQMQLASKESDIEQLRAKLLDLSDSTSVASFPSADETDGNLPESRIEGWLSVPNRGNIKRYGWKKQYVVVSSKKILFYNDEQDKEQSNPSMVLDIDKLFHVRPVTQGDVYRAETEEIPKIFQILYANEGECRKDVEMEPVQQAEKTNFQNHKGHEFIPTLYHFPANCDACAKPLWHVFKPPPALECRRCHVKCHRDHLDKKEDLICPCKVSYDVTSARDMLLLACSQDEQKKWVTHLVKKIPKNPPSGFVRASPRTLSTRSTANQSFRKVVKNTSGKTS

By IC50 is commonly meant the concentration that inhibits the measured activity by half. Read a low IC50 as greater potency in that assay. Consider `CCc1ccn(-c2cccc(CN[C@H]3CCC[C@H](Nc4ccc5[nH]ncc5c4)C3)c2)c(=O)c1C`, for which the IC50 is 209 nM in experiment [1] and 13.1 nM in experiment [2]. Moreover, the Ratio IC50 in experiment [3] is 16.

Regarding `Cc1ccc(=O)n(-c2cccc(CN[C@H]3CCC[C@@H](Nc4ccc5[nH]ncc5c4)C3)c2)c1`, the IC50 in experiment [1] turned out to be 102 nM; in experiment [2], 138 nM. In addition, the Ratio IC50 in experiment [3] came to 1.

Take `Nc1ccn(-c2cccc(CN[C@H]3CCC[C@@H](Nc4ccc5[nH]ncc5c4)C3)c2)c(=O)c1`: the IC50 in experiment [2] was determined as 77.5 nM.

With `Cc1ccn(-c2cccc(CN[C@H]3CCC[C@H](Nc4ccc5[nH]ncc5c4)C3)c2)c(=O)c1`, the figures for the IC50 in experiment [1] and in experiment [2] were 171 nM and 26 nM, respectively. In addition, the Ratio IC50 in experiment [3] amounted to 7.

With `O=c1ccccn1-c1cccc(CN[C@H]2CCC[C@H](Nc3ccc4[nH]ncc4c3)C2)c1`, the IC50 in experiment [1] worked out at 162 nM; in experiment [2], 42.4 nM. Moreover, the Ratio IC50 in experiment [3] was determined as 4.

As to `Cc1cc(=O)n(-c2cccc(CN[C@H]3CCC[C@@H](Nc4ccc5[nH]ncc5c4)C3)c2)cc1F`, the figures for the 50% inhibitory concentration (IC50) in experiment [1] and in experiment [2] were 216 nM and 27 nM, respectively. Further, in experiment [3], the Ratio IC50 amounted to 8.

Take `O=c1cc(C(F)(F)F)ccn1-c1cccc(CN[C@H]2CCC[C@@H](Nc3ccc4[nH]ncc4c3)C2)c1`: the figures for the IC50 in experiment [1] and in experiment [2] were 967 nM and 207 nM, respectively. Besides, the Ratio IC50 in experiment [3] came out at 5.

In turn, `Nc1nc(=O)n(-c2cccc(CN[C@H]3CCC[C@@H](Nc4ccc5[nH]ncc5c4)C3)c2)cc1F` showed an IC50 in experiment [2] of 83.7 nM.

With `NC(=O)c1ccn(-c2cccc(CN[C@H]3CCC[C@H](Nc4ccc5[nH]ncc5c4)C3)c2)c(=O)c1`, the IC50 was found to be 238 nM in experiment [1] and 102 nM in experiment [2]. In experiment [3], the Ratio IC50 is 2.

Turning to `Cc1cc(=O)n(-c2cccc(CN[C@H]3CCC[C@@H](Nc4ccc5[nH]ncc5c4)C3)c2)cc1N`, the half-maximal inhibitory concentration (IC50) in experiment [2] was 434 nM.

With `N#Cc1ccn(-c2cccc(CN[C@H]3CCC[C@@H](Nc4ccc5[nH]ncc5c4)C3)c2)c(=O)c1`, the IC50 is 272 nM in experiment [1] and 77.1 nM in experiment [2]. Moreover, the Ratio IC50 in experiment [3] stood at 4.

Turning to `Cc1ccc(=O)n(-c2cccc(CN[C@H]3CCC[C@H](Nc4ccc5[nH]ncc5c4)C3)c2)c1`, the IC50 worked out at 152 nM in experiment [1] and 35.4 nM in experiment [2]. Moreover, in experiment [3], the Ratio IC50 amounted to 4.

In experiment [2], `Nc1ccn(-c2ccc(CN3CCCCC(Nc4ccc5[nH]ncc5c4)C3)cc2)c(=O)n1` (stereo not given) came in with an IC50 of 2 nM.

For the molecule `O=c1cc(F)ccn1-c1cccc(CN[C@H]2CCC[C@@H](Nc3ccc4[nH]ncc4c3)C2)c1`, the IC50 came to 273 nM in experiment [1] and 88.1 nM in experiment [2]. Also, in experiment [3], the Ratio IC50 stood at 3.

As for `NC(=O)c1ccn(-c2cccc(CN[C@H]3CCC[C@@H](Nc4ccc5[nH]ncc5c4)C3)c2)c(=O)c1`, the IC50 in experiment [1] is 464 nM; in experiment [2], 130 nM. Also, in experiment [3], the Ratio IC50 stood at 4.

Regarding `O=c1cc(F)ccn1-c1cccc(CN[C@H]2CCC[C@H](Nc3ccc4[nH]ncc4c3)C2)c1`, the IC50 in experiment [1] worked out at 207 nM; in experiment [2] it was 36.6 nM. Also, the Ratio IC50 in experiment [3] amounted to 6.

As for `Cc1cccn(-c2cccc(CN[C@H]3CCC[C@@H](Nc4ccc5[nH]ncc5c4)C3)c2)c1=O`, the figures for the IC50 in experiment [1] and in experiment [2] were 811 nM and 153 nM, respectively. The Ratio IC50 in experiment [3] stood at 5.

As for `O=c1cc(-c2ccccc2)ccn1-c1cccc(CN[C@H]2CCC[C@H](Nc3ccc4[nH]ncc4c3)C2)c1`, the IC50 in experiment [1] amounted to 96.1 nM; in experiment [2], 3 nM. Also, in experiment [3], the Ratio IC50 was 32.

For the molecule `Nc1ccn(-c2ccc(CNC3CCCC(Nc4ccc5[nH]ncc5c4)C3)cc2)c(=O)n1` (stereo not given), the half-inhibitory concentration (IC50) in experiment [2] came out at 0.7 nM.

Regarding `Cc1cc(=O)n(-c2cccc(CN[C@H]3CCC[C@H](Nc4ccc5[nH]ncc5c4)C3)c2)cc1N`, in experiment [2], the midpoint of inhibition, the IC50, lay at 561 nM.

In the case of `Cc1ccn(-c2cccc(CN[C@H]3CCC[C@@H](Nc4ccc5[nH]ncc5c4)C3)c2)c(=O)c1`, the IC50 in experiment [1] amounted to 812 nM; in experiment [2], 11.9 nM. Besides, in experiment [3], the Ratio IC50 came to 68.

For the molecule `CCc1ccn(-c2cccc(CN[C@H]3CCC[C@@H](Nc4ccc5[nH]ncc5c4)C3)c2)c(=O)c1C`, the values for the IC50 in experiment [1] and in experiment [2] were 313 nM and 6.1 nM, respectively. Further, in experiment [3], the Ratio IC50 turned out to be 52.

In experiment [2], `Nc1nc(=O)n(-c2cccc(CN[C@H]3CCC[C@H](Nc4ccc5[nH]ncc5c4)C3)c2)cc1F` came in with an IC50 of 66.2 nM.

Regarding `COc1cc(-c2cn[nH]c2)cc2c(=O)[nH]c(C3COc4ccc(OCCN(C)C)cc4C3)nc12` (stereo not given), the IC50 came out at 12 nM in experiment [4] and 150 nM in experiment [5].

In turn, `Nc1ccn(-c2ccc(CN3CCCC(Nc4ccc5[nH]ncc5c4)C3)cc2)c(=O)n1` (stereo not given) registered an IC50 in experiment [2] of 5 nM.

`Nc1ccn(-c2cccc(CNC3CCCC(Nc4ccc5[nH]ncc5c4)C3)c2)c(=O)n1` (stereo not given) gave an IC50 in experiment [2] of 0.2 nM. This IC50 lies about 25-fold lower than the previous one.

For `CC(C)(C)c1ccn(-c2cccc(CN[C@H]3CCC[C@H](Nc4ccc5[nH]ncc5c4)C3)c2)c(=O)c1`, the half-maximal inhibitory concentration (IC50) in experiment [1] is 210 nM; in experiment [2] it was 1.3 nM. In experiment [3], the Ratio IC50 was 162.

For the molecule `CC(C)CCC(=O)Nc1ccn([C@H]2CC[C@H](O[C@H]3O[C@H](C)[C@@H](N(C)C)[C@H](O)[C@H]3O)[C@@H](C)O2)c(=O)n1`, the IC50 in experiment [2] came out at 72.8 nM.

In experiment [2], `Nc1ccn(-c2cccc(CN3CCCC(Nc4ccc5[nH]ncc5c4)C3)c2)c(=O)n1` (stereo not given) gave an IC50 of 1 nM.

For the molecule `Cc1cccn(-c2cccc(CN[C@H]3CCC[C@H](Nc4ccc5[nH]ncc5c4)C3)c2)c1=O`, the figures for the IC50 in experiment [1] and in experiment [2] were 277 nM and 18.7 nM, respectively. In addition, the Ratio IC50 in experiment [3] came to 15.

Take `O=c1cc(-c2ccccc2)ccn1-c1cccc(CN[C@H]2CCC[C@@H](Nc3ccc4[nH]ncc4c3)C2)c1`: the figures for the IC50 in experiment [1] and in experiment [2] were 99.4 nM and 1.7 nM, respectively. Besides, in experiment [3], the Ratio IC50 is 59.

For the molecule `O=c1cc(C(F)(F)F)ccn1-c1cccc(CN[C@H]2CCC[C@H](Nc3ccc4[nH]ncc4c3)C2)c1`, the IC50 turned out to be 279 nM in experiment [1] and 173 nM in experiment [2]. Besides, the Ratio IC50 in experiment [3] came out at 2.

In the case of `CC(C)(C)c1ccn(-c2cccc(CN[C@H]3CCC[C@@H](Nc4ccc5[nH]ncc5c4)C3)c2)c(=O)c1`, the values for the IC50 in experiment [1] and in experiment [2] were 335 nM and 1.6 nM, respectively. In addition, the Ratio IC50 in experiment [3] was determined as 216.

In the case of `Nc1ccn(-c2cccc(CN[C@H]3CCC[C@H](Nc4ccc5[nH]ncc5c4)C3)c2)c(=O)c1`, the half-inhibitory concentration (IC50) in experiment [2] amounted to 54 nM.

For `O=c1ccccn1-c1cccc(CN[C@H]2CCC[C@@H](Nc3ccc4[nH]ncc4c3)C2)c1`, the IC50 in experiment [1] stood at 644 nM; in experiment [2] it was 73.7 nM. For the same molecule, in experiment [3], the Ratio IC50 amounted to 9.
